Data on 21 molecules can be found in publication PMC4317638 (Emerging Microbes & Infections, 2014).

The test system of data set [1] is Ebola VLP entry into HeLa cells. Kind of data set: microbe, parasite or virus in culture. It is filed as cell-based, Ebola virus. The settings on record: for IC90: read-out: Block Ebola VLP entry IC90; for Emax: read-out: Block Ebola VLP entry Max. Inh.
The test system of data set [2] is Ebola virus infection. The settings on record: cited from earlier work.
Data set [3] can be described thus: in vitro. The settings on record: human, Cytotoxicity IC50.
The subject of data set [4] is Ebola virus infection. The settings on record: in vivo; cited from earlier work.
The test system of data set [5] is HeLa cells.
Setting [6] is: read-out: Block Ebola VLP entry IC50.
Setting [7] is: Zaire ebolavirus, HeLa, read-out: Block Ebola VLP entry IC50.
Setting [8] is: Zaire ebolavirus, HeLa, read-out: IC50 of blocking Ebola VLP entry.

Read-outs that look alike come from different tables or passages of the source.

In the case of `CCN(CC)CCOc1ccc(C(=C(Cl)c2ccccc2)c2ccccc2)cc1` [Clomiphene], in data set [1] (Zaire ebolavirus, HeLa), the IC90 came to 5.34 µM and the Emax was 92%. For the same molecule, the “Block of Ebola virus infection” value in data set [2] is “effectively block Ebola virus infection”. The molecule further gave an IC50 in data set [3] of 91.4 µM. For the same molecule, the “Efficacy in a mouse infection model” value in data set [4] is “effective in a mouse infection model”.
`COc1cccc2c1C(=O)c1c(O)c3c(c(O)c1C2=O)C[C@@](O)(C(C)=O)C[C@@H]3O[C@H]1C[C@H](N)[C@H](O)[C@H](C)O1` [Daunorubicin]: in data set [1], the “Block Ebola VLP entry Max. Inh.” value turned out to be 96%, the “Selectivity Index” value stood at 103 fold and the IC90 was 4.45 µM. In data set [1] (setting [6]), the IC50 came to 2.43 µM. For the same molecule, inhibition in data set [5] (human) was half-maximal at 250 µM (IC50).
For the molecule `C[C@H]1O[C@@H](O[C@H]2[C@@H](O)C[C@H](O[C@H]3[C@@H](O)C[C@H](O[C@H]4CC[C@@]5(C)[C@H](CC[C@@H]6[C@@H]5C[C@@H](O)[C@]5(C)[C@@H](C7=CC(=O)OC7)CC[C@]65O)C4)O[C@@H]3C)O[C@@H]2C)C[C@H](O)[C@@H]1O` [Digoxin], in data set [1], the “Selectivity Index” value was 327 fold. The IC50 in data set [1] (setting [7]) is 0.763 µM; in data set [1] (setting [8]), 0.76 µM; in data set [3], 250 µM. In addition, in data set [1] (Zaire ebolavirus, HeLa), the IC90 was found to be 3.45 µM. For the same molecule, the Emax in data set [1] (Zaire ebolavirus, HeLa) was found to be 68%. The “Cytotoxicity” value in data set [5] was “cytotoxicity at a compound concentration similar to that effective in blocking Ebola VLP entry”.
As to `N=C(N)NN=C(/C=C/c1ccc([N+](=O)[O-])o1)/C=C/c1ccc([N+](=O)[O-])o1` [Nitrovin], the “Block Ebola VLP entry Max. Inh.” value in data set [1] turned out to be 95%. Besides, the figures for the IC50 in data set [1] (setting [6]) and in data set [5] were 4.85 µM and more than 500 µM, respectively. In addition, the IC90 in data set [1] stood at 7.14 µM.
For `CC[C@@H]([C@H](C)O)n1ncn(-c2ccc(N3CCN(c4ccc(OC[C@@H]5CO[C@@](Cn6cncn6)(c6ccc(F)cc6F)C5)cc4)CC3)cc2)c1=O` [Posaconazole], the “Selectivity Index” value in data set [1] is given as more than 65 fold. Besides, the IC50 in data set [1] (setting [7]) is 7.69 µM; in data set [3] it was more than 500 µM. The IC90 in data set [1] (Zaire ebolavirus, HeLa) came out at 8.33 µM. For the same molecule, the Emax in data set [1] (Zaire ebolavirus, HeLa) stood at 77%.
For `CCCN(CCC)C(=O)C(CCC(=O)OCCCN1CCN(CCOC(=O)Cc2c(C)n(C(=O)c3ccc(Cl)cc3)c3ccc(OC)cc23)CC1)NC(=O)c1ccccc1` (centres unmarked) [Proglumetacin], the “Selectivity Index” value in data set [1] is reported as more than 73 fold. Besides, in data set [1] (setting [7]), the IC50 worked out at 6.85 µM. Further, in data set [1] (Zaire ebolavirus, HeLa), the IC90 amounted to 17.3 µM and the Emax is 93%. This molecule returned an IC50 in data set [3] of more than 500 µM.
Consider `CCCNCC(O)COc1ccccc1C(=O)CCc1ccccc1` (centres unmarked) [Propafenone], for which the “Selectivity Index” value in data set [1] is given as more than 80 fold. The figures for the half-maximal inhibitory concentration (IC50) in data set [1] (setting [7]), in data set [1] (setting [8]) and in data set [3] were 6.25 µM, 6.2 µM and more than 500 µM, respectively. The IC90 in data set [1] (Zaire ebolavirus, HeLa) worked out at 23.8 µM. Further, the Emax in data set [1] (Zaire ebolavirus, HeLa) was 100%.
As to `O=C(c1ccc(OCCN2CCCCC2)cc1)c1c(-c2ccc(O)cc2)sc2cc(O)ccc12` [Raloxifene/Evista, Raloxifene], in data set [1], the “Selectivity Index” value is on record as more than 271 fold. Moreover, the IC50 in data set [1] (setting [7]) is 1.84 µM; in data set [1] (setting [8]) it was 1.8 µM; in data set [3], more than 500 µM. For the same molecule, the IC90 in data set [1] (Zaire ebolavirus, HeLa) worked out at 9.01 µM. Also, the Emax in data set [1] (Zaire ebolavirus, HeLa) came to 100%.
As to `OCc1cc(C(O)CNCCCCCCOCCCCc2ccccc2)ccc1O` (centres unmarked) [Salmeterol], in data set [1], the “Selectivity Index” value was more than 52 fold. The IC50 in data set [1] (setting [7]) amounted to 9.68 µM. Further, in data set [1] (Zaire ebolavirus, HeLa), the IC90 was found to be 13 µM and the Emax came to 90%. Also, in data set [3], the IC50 is more than 500 µM.
On the same counts, the results for `CCN(CC)CCNC(=O)c1c(C)[nH]c(/C=C2\C(=O)Nc3ccc(F)cc32)c1C` [Sunitinib] are 77 fold, 1.91 µM, 3.82 µM, 90% and 148 µM.
As for `CC/C(=C(\c1ccccc1)c1ccc(OCCN(C)C)cc1)c1ccccc1` [Tamoxifen], in data set [1] (Zaire ebolavirus, HeLa), the IC90 is 3.15 µM and the Emax was 97%. The same molecule registered a half-maximal inhibitory concentration (IC50) in data set [3] of 99.8 µM.
Turning to `CN1CCN(CCCN2c3ccccc3Sc3ccc(S(=O)(=O)N(C)C)cc32)CC1` [Thioproperazine], the IC50 in data set [1] (setting [7]) was determined as 4.32 µM. For the same molecule, in data set [1] (Zaire ebolavirus, HeLa), the IC90 came out at 12.5 µM and the Emax was 103%. Moreover, in data set [3], the IC50 is more than 500 µM.
For the molecule `CN1CCN(CC/C=C2/c3ccccc3Sc3ccc(S(=O)(=O)N(C)C)cc32)CC1` [Thiothixene], in data set [1], the “Selectivity Index” value is on record as 36 fold. Moreover, the IC50 is 1.92 µM in data set [1] (setting [7]), 1.9 µM in data set [1] (setting [8]) and 70.1 µM in data set [3]. For the same molecule, the concentration for an effect of 90% (IC90) in data set [1] (Zaire ebolavirus, HeLa) was found to be 7.18 µM. In addition, in data set [1] (Zaire ebolavirus, HeLa), the Emax was determined as 100%.
With `CCN(CC)CCOc1ccc2c(c1)C(=O)c1cc(OCCN(CC)CC)ccc1-2` [Tilorone], the “Selectivity Index” value in data set [1] is more than 146 fold. In addition, in data set [1] (setting [7]), the IC50 turned out to be 3.43 µM. Moreover, in data set [1] (Zaire ebolavirus, HeLa), the IC90 is 19 µM and the Emax is 100%. The same molecule came in with an IC50 in data set [3] of more than 500 µM.
On to `CC[C@@]1(O)C(=O)OCc2c1cc1n(c2=O)Cc2cc3c(CN(C)C)c(O)ccc3nc2-1` [Topotecan], for which the “Selectivity Index” value in data set [1] is more than 130 fold. Besides, the concentration for half-maximal inhibition (IC50) in data set [1] (setting [7]) was 3.85 µM; in data set [3], more than 500 µM. Besides, the IC90 in data set [1] (Zaire ebolavirus, HeLa) was determined as 10.8 µM. In addition, the Emax in data set [1] (Zaire ebolavirus, HeLa) amounted to 107%.
As for `CN(C)CCOc1ccc(/C(=C(/CCCl)c2ccccc2)c2ccccc2)cc1` [Toremifene], in data set [1], the “Selectivity Index” value is given as 316 fold. Also, the IC50 in data set [1] (setting [7]) is 0.566 µM; in data set [1] (setting [8]), 0.56 µM; in data set [1] (read-out: IC50 of blocking Ebola VLP entry), 0.55 µM; in data set [3], 180 µM. The IC90 in data set [1] (Zaire ebolavirus, HeLa) amounted to 3.73 µM. The Emax in data set [1] (Zaire ebolavirus, HeLa) amounted to 98%. The “Block of Ebola virus infection” value in data set [2] is on record as “effectively block Ebola virus infection”. The “Efficacy in a mouse infection model” value in data set [4] is given as “effective in a mouse infection model”.
`CN1CCN(CCCN2c3ccccc3Sc3ccc(C(F)(F)F)cc32)CC1` [Trifluoperazine]: the “Selectivity Index” value in data set [1] stood at 21 fold. In addition, the results for the IC50 in data set [1] (setting [7]), in data set [1] (setting [8]) and in data set [5] (human) were 4.48 µM, 4.4 µM and 97 µM, respectively. Moreover, in data set [1] (Zaire ebolavirus, HeLa), the IC90 came out at 12 µM. In data set [1] (Zaire ebolavirus, HeLa), the Emax was found to be 97%.
As to `CC[C@]1(O)C[C@@H]2CN(CCc3c([nH]c4ccccc34)[C@@](C(=O)OC)(c3cc4c(cc3OC)N(C)[C@H]3[C@@](O)(C(=O)OC)[C@H](OC(C)=O)[C@]5(CC)C=CCN6CC[C@]43[C@@H]65)C2)C1` [Vinblastine], in data set [1], the “Selectivity Index” value is recorded as >10 324 fold. For the same molecule, the half-maximal inhibitory concentration (IC50) in data set [1] (setting [7]) was determined as 0.048 µM. For the same molecule, in data set [1] (Zaire ebolavirus, HeLa), the IC90 came out at 0.13 µM and the Emax stood at 87%. Moreover, the IC50 in data set [3] is more than 500 µM.
`CC[C@]1(O)C[C@H]2CN(CCc3c([nH]c4ccccc34)[C@@](C(=O)OC)(c3cc4c(cc3OC)N(C=O)[C@H]3[C@@](O)(C(=O)OC)[C@H](OC(C)=O)[C@]5(CC)C=CCN6CC[C@]43[C@@H]65)C2)C1` [Vincristine]: in data set [1], the “Selectivity Index” value is on record as more than 3554 fold. For the same molecule, the IC50 in data set [1] (setting [7]) was 0.141 µM; in data set [1] (setting [8]), 0.14 µM; in data set [3], more than 500 µM. Besides, the IC90 in data set [1] (Zaire ebolavirus, HeLa) worked out at 0.258 µM. In data set [1] (Zaire ebolavirus, HeLa), the Emax was determined as 83%.
Regarding `CCC1=C[C@@H]2CN(C1)Cc1c([nH]c3ccccc13)[C@@](C(=O)OC)(c1cc3c(cc1OC)N(C)[C@H]1[C@@](O)(C(=O)OC)[C@H](OC(C)=O)[C@]4(CC)C=CCN5CC[C@]31[C@@H]54)C2` [Vinorelbine/Navelbine, Vinorelbine], the “Selectivity Index” value in data set [1] is given as more than 7546 fold. The IC50 in data set [1] (setting [7]) is 0.066 µM. In data set [1] (Zaire ebolavirus, HeLa), the IC90 was found to be 0.19 µM and the Emax came out at 90%. In data set [3], this molecule returned an IC50 of more than 500 µM.
On to Spiramycin, for which, in data set [1], the “Block Ebola VLP entry Max. Inh.” value came out at 92% and the IC90 worked out at 11.7 µM. In data set [5], this molecule returned an IC50 of more than 500 µM.

The term IC90 denotes the point of the concentration-response curve where the effect stands at 90%. By IC50 is commonly meant the point on the concentration scale where inhibition reaches its midpoint.
